Where “and” joins values, the source holds several entries; their conditions need not be identical. Equal values may be shown once.

The test system of data set [1] is reactive oxygen species. Nature of the data set: Production of active oxygen species in BALF of the COPD model (DCF-DA). It is filed as in vivo, C57BL/6N mice. The protocol: Production of active oxygen species in the bronchoalveolar lavage fluid obtained in <Test Example 6-3> above was confirmed by the following method.
Specifically, the separated BALF (200 μL) was treated to the final concentration of 20 μM of DCF-DA (dihydrodichlorofluorescein diacetate, Sigma-Aldrich, USA), followed by culturing for 30 minutes and measurement using Fluorescence (Molecular Device, USA). The inhibition rate was calculated by Equation 3 above.

Data set [2] relates to infiltration of inflammatory cells in the lung tissue. Nature of the data set: Lung tissue histopathology (H&E) in the COPD model. It is filed as in vivo, C57BL/6N mice. The note with it: vs COPD-induced group. The protocol:
Specifically, the lung was taken out and immediately fixed in a 10% formaldehyde solution, which was then sliced and washed with running water for 8 hours. It was then embedded in […] and Hematoxylin & Eosin stained, and the pathological changes in the lung tissue were examined using an optical microscope.

The test system of data set [3] is IL-6. Put plainly: IL-6 level in BALF of the COPD model (ELISA). The following applies: vs COPD-induced group; for IL-6 inhibition rate (%): BALF. It counts as in vivo, C57BL/6N mice. On the procedure: (§1) Cytokines were measured in the cell supernatant obtained in <Test Example 6-3> above by the following method. Specifically, the levels of IL-6 (R & D System, USA) and TNF-α (BD Bioscience, USA) in the separated BALF were measured by enzyme-linked immuno-sorbent assay (ELISA). Each cytokine analysis was carried out according to the manufacturer's test method.
A general note: An ELISA detects its analyte on a solid surface through an enzyme-linked reagent.

Data set [4] relates to TNF-α. Nature of the data set: TNF-α level in BALF of the COPD model (ELISA). The following applies: vs COPD-induced group; for TNF-α inhibition rate (%): BALF. It is filed as in vivo, C57BL/6N mice. The protocol:
as §1

Data set [5] has as its system inflammatory cells in the bronchoalveolar lavage fluid. Put plainly: Inflammatory cells in bronchoalveolar lavage fluid of the COPD mouse model (cigarette smoke + LPS). It counts as in vivo, C57BL/6N mice. The note with it: BALF, vs COPD-induced group. On the procedure: Six-week-old male SPF (specific pathogen-free) C57BL/6N mice (22 to 24 g) were supplied by Koatech (Korea). These animals were fed with a sufficient amount of solid feed (no antibiotics, Samyang Feed Co.) and water until the day of the experiment. They were allowed to adapt for 1 week in a light-dark cycle environment at a temperature of 22±2° C. and a humidity of 55±15%, and then subjected to the experiment.
The animal model was exposed to cigarette smoke to induce chronic obstructive pulmonary disease. 3R4F Kentuchy Reference Cigarettes as standard cigarettes for use to generate cigarette smoke were supplied by University of California (USA). The standard cigarettes contain 9.4 mg of tar, 11 mg of total particle matter (TPM), and 12 mg of carbon monoxide per 1 cigarette. The standard cigarettes were used after harmonization for 48 hours to 72 hours at a temperature of 22±1° C. and a humidity of 60±2%. Further, Cigarette Smoke Generator manufactured by Korea BioLink (Korea) was used for exposure to cigarette smoke. Cigarette smoke was inhaled for 1 hour (8 pcs/hour) for 7 days from 1 hour after oral administration of a sample. 10 μg of LPS (lipopolysaccharide) in PBS 50 μL was injected intranasally to each mouse on the 4th day of the experiment after the mouse was anesthetized with zoletyl 1 hour before the exposure to cigarette smoke. The smoking condition was 8 puffs per 1 standard cigarette (volume: 45 mL, duration: 2 seconds, and interval: 1 time/min).
The active fraction of Magnoliae flos (15, 30 mg/kg) and roflumilast (10 mg/kg) as therapeutic substances were dissolved in 0.5% sodium carboxymethyl cellulose and were orally administered 1 hour before the exposure to cigarette smoke.
The experimental groups were divided into (i) normal control (NC) group; (ii) cigarette smoke+LPS exposure group (COPD); (iii) experimental group administered with roflumilast (ROF) (10 mg/kg, p.o) 1 hour before the exposure to cigarette smoke+LPS; and (iv) experimental group administered with the active fraction of Magnoliae flos (15, 30 mg/kg, p.o; Magnoliae flos 15 and Magnoliae flos 30) 1 hour before the exposure to cigarette smoke+LPS. […] Then, they were administered in the same manner as above.
The bronchial alveolar lavage fluid was separated from the animal model treated with the active fraction and the compounds of Magnoliae flos in <Test Example 6-2> above in the following manner, and the number of inflammatory cells was measured.
Specifically, a mouse sonde was inserted into the bronchial tube, a 1 mL syringe containing 0.7 mL of DPBS (Dulbecco's Phosphate-Buffered Saline) was connected thereto, and DPBS was injected into the lung. The injected DPBS was recovered, and this procedure was repeated twice. The bronchoalveolar lavage fluid separated by DPBS was centrifuged at 1,500 rpm for 15 minutes to make a cell pellet. The supernatant was stored frozen at −70° C. for cytokine analysis. Each cell obtained was suspended in DPBS, attached to a slide glass using a cytospin centrifuge, and Diff-Quik stained. The number of inflammatory cells in each sample was counted through microscopic examination, and the inhibition rate was calculated according to the following Equation 3.
Inhibition rate=(Value of COPD-induced group−value of target substance administered group)×100/(Value of COPD-induced group) [Equation 3]

The test system of data set [6] is MUC5AC protein. Put plainly: Inhibition of MUC5AC protein production (immunoassay) by the compounds. It counts as cell-based, human. The following applies: for MUC5AC secretion (Relative amount to TNF-α treated group, %) / Inhibition rate (%): TNF-α 20 ng/mL; for Inhibition rate (%): MUC5AC secretion; for production of MUC5AC (in words): vs TNF-α treated group = 100%. The protocol: For immunoassay of the resulting MUC5AC, the supernatant (50 uL) recovered was dispensed on to a 96-well plate and dried in a thermostat set at 50° C. It was washed with PBS supplemented with 1% BSA and reacted with an MUC5AC antibody (abcam, USA) at room temperature for 1 hour. A secondary antibody was dispensed thereto for reaction for 1 hour. It was washed again and then reacted with a 3,3′,5,5′-tetramethylbenzidine peroxide solution for 20 minutes. After the reaction was stopped with a sulfuric acid solution, the degree of color development was measured at 450 nm.
As a result, as shown in the following Table 6, the amount of MUCSAC secretion increased in the group treated with TNF-α.

Data set [7] relates to H292 cells. Put plainly: Cytotoxicity (CCK-8 cell viability) of the compounds of Magnoliae flos in H292 cells. The note with it: 24 h, vs 0.2% DMSO control = 100%. It is filed as cell-based, human. The protocol:
Then, 10 μl of the CCK-8 solution (Dojindo Laboratories, Japan) was mixed with 90 μl of the medium, and 100 μl thereof was added per well. After incubation for a minimum of 30 minutes to a maximum of 4 hours, the absorbance was measured at 570 nm. The cell viability was calculated according to the following Equation 2 with a negative control group treated with 0.2% DMSO as a reference of 100%.
Cell viability=(Compound treated OD 570 nm value)×100/(Negative control group OD 570 nm value) [Equation 2]

Data set [8] deals with MUC5AC promoters. Nature of the data set: MUC5AC promoter luciferase reporter assay in H292 cells. It counts as cell-based, human. The note with it: Table 7, MUC5AC promoter luciferase reporter, 10 μM, TNF-α 20 ng/mL. From the text:
The degree of activation of luciferase was confirmed using a One-glow Luciferase Assay System (Promega).
As a result, as shown in the following Table 7, the activity of the MUC5AC promoters increased in the group treated with TNF-α.

[9] abbreviates: 15 mg/kg p.o., vs COPD-induced group.
Setting [10] is: 30 mg/kg p.o., vs COPD-induced group.

For `O=C(Nc1c(Cl)cncc1Cl)c1ccc(OC(F)F)c(OCC2CC2)c1` [ROF, roflumilast, reference compound], the “Active oxygen inhibition rate (%)” value in data set [1] (10 mg/kg p.o., vs COPD-induced group) worked out at 25.9 ± 4.3%. The “infiltration of inflammatory cells around the alveoli and bronchi (in words)” value in data set [2] is listed as “reduced”. For the same compound, in data set [3], the “IL-6 in the bronchoalveolar lavage fluid (in words)” value was “decreased”. Also, in data set [4] (10 mg/kg p.o.), the “TNF-α inhibition rate (%)” value is 44.8 ± 3.8% and 30.8 ± 5.9%. In data set [5] (10 mg/kg p.o.), the “Inhibition rate of inflammatory cell infiltration (%) Macrophage” value (“Inhibition rate … (%) Macrophage” below) was 36.9 ± 15.0% and 30.6 ± 9.9%; the “Inhibition rate of inflammatory cell infiltration (%) Neutrophil” value (“Inhibition rate … (%) Neutrophil” below) is 31.9 ± 7.6% and 37.4 ± 8.3%; the “Inhibition rate of inflammatory cell infiltration (%) Total inflammatory cells” value (“Inhibition rate … (%) Total inflammatory cells” below) is 34.9 ± 4.6% and 39.4 ± 7.2%.

Take `COc1ccc([C@H]2OC[C@H]3[C@@H]2CO[C@H]3c2cc(OC)c(OC)c(OC)c2)cc1OC` [Compound S4, epimagnolin]: the “MUC5AC secretion (Relative amount to TNF-α treated group, %)” value is 90.55 ± 2.59% in data set [6] (2.5 μM), 74.24 ± 2.83% in data set [6] (5 μM), 63.71 ± 1.27% in data set [6] (10 μM) and 36.8 ± 6.97% in data set [8]. Also, the “Inhibition rate (%)” value in data set [6] (2.5 μM) stood at 9.45%; in data set [6] (5 μM), 25.76%; in data set [6] (10 μM), 36.29%; in data set [8], 63.2%. The “production of MUC5AC (in words)” value was “inhibited in a manner depending on the concentrations” in data set [6] and “inhibited the production of MUC5AC in a manner depending on concentration” in data set [6] (listed as Formula 5). For the same compound, the “Active oxygen inhibition rate (%)” value is given as 13.5 ± 4.3% in data set [1] (setting [9]) and 15.9 ± 4.2% in data set [1] (setting [10]). Also, in data set [1] (30 mg/kg), the “rate of inhibiting reactive oxygen compared with ROF drug control group (in words)” value was “higher rates of inhibiting reactive oxygen than that of the drug control group treated with ROF”. Also, the “Viability of H292 cells (%, average ± deviation)” value in data set [7] (2.5 μM) was 99.81 ± 2.15%; in data set [7] (5 μM) it was 100.74 ± 2.84%; in data set [7] (10 μM), 99.45 ± 1.53%; in data set [7] (20 μM), 97.20 ± 1.99%. The results for the “IL-6 inhibition rate (%)” value in data set [3] (15 mg/kg p.o.) and in data set [3] (30 mg/kg p.o.) were 0.0 ± 0.0% and 40.3 ± 3.7%, respectively. Besides, in data set [3], the “IL-6 in the bronchoalveolar lavage fluid (in words)” value is on record as “concentration-dependent decrease”. Besides, the “TNF-α inhibition rate (%)” value came out at 13.8 ± 5.5% in data set [4] (15 mg/kg p.o.) and 24.7 ± 6.5% in data set [4] (30 mg/kg p.o.). Moreover, in data set [4], the “TNF-α secretion in the bronchoalveolar lavage fluid (in words)” value was “concentration-dependent inhibition”. Also, the “Inhibition rate … (%) Macrophage” value in data set [5] (15 mg/kg p.o.) was found to be 0.0 ± 0.0%; in data set [5] (30 mg/kg p.o.), 21.4 ± 6.5%. Further, the “Inhibition rate … (%) Neutrophil” value in data set [5] (15 mg/kg p.o.) is recorded as 13.8 ± 4.9%; in data set [5] (30 mg/kg p.o.), 25.7 ± 5.5%. For the same compound, the entries for the “Inhibition rate … (%) Total inflammatory cells” value in data set [5] (15 mg/kg p.o.) and in data set [5] (30 mg/kg p.o.) were 14.0 ± 5.1% and 29.1 ± 4.4%, respectively.

With `COc1ccc([C@H]2OC[C@H]3[C@@H]2CO[C@@H]3c2ccc(OC)c(OC)c2)cc1OC` [Compound S1, dimethylpinoresinol], the “Inhibition rate (%)” value worked out at 8.64% in data set [6] (2.5 μM), 26.36% in data set [6] (5 μM), 30.2% in data set [6] (10 μM) and 55.74% in data set [8]. In addition, the “production of MUC5AC (in words)” value in data set [6] is on record as “inhibited in a manner depending on the concentrations”; in data set [6] (listed as Formula 2), “inhibited the production of MUC5AC in a manner depending on concentration”. Also, the entries for the “Active oxygen inhibition rate (%)” value in data set [1] (setting [9]) and in data set [1] (setting [10]) were 17.9 ± 5.1% and 34.7 ± 3.2%, respectively. The “production of active oxygen species (in words)” value in data set [1] (15 and 30 mg/kg, vs COPD-induced group) is listed as “relatively higher inhibition rates in a manner depending on concentration”. The “Viability of H292 cells (%, average ± deviation)” value in data set [7] (2.5 μM) turned out to be 121.27 ± 2.04%; in data set [7] (5 μM) it was 121.61 ± 3.75%; in data set [7] (10 μM) it was 118.76 ± 1.96%. In addition, the “IL-6 inhibition rate (%)” value in data set [3] (15 mg/kg p.o.) amounted to 56.2 ± 6.6%; in data set [3] (30 mg/kg p.o.), 67.6 ± 6.6%. Besides, the “IL-6 in the bronchoalveolar lavage fluid (in words)” value in data set [3] was “concentration-dependent decrease”. Moreover, the figures for the “TNF-α inhibition rate (%)” value in data set [4] (15 mg/kg p.o.) and in data set [4] (30 mg/kg p.o.) were 25.0 ± 7.8% and 38.0 ± 4.1%, respectively. The “TNF-α secretion in the bronchoalveolar lavage fluid (in words)” value in data set [4] is on record as “concentration-dependent inhibition”. The “Inhibition rate … (%) Macrophage” value in data set [5] (15 mg/kg p.o.) was 12.8 ± 10.4%; in data set [5] (30 mg/kg p.o.), 40.0 ± 5.4%. For the same compound, the “Inhibition rate … (%) Neutrophil” value in data set [5] (15 mg/kg p.o.) was 45.9 ± 3.4%; in data set [5] (30 mg/kg p.o.) it was 54.5 ± 3.4%. Further, the entries for the “Inhibition rate … (%) Total inflammatory cells” value in data set [5] (15 mg/kg p.o.) and in data set [5] (30 mg/kg p.o.) were 42.2 ± 2.5% and 54.3 ± 3.5%, respectively. The “increase in inflammatory cells (in words)” value in data set [5] was “effectively inhibited”.

Values taken from patent US10376553B2, “Pharmaceutical composition for preventing and treating chronic obstructive lung disease containing, as active ingredient, Magnoliae flos extract, fraction, or active fraction thereof” (KOREA RESEARCH INSTITUTE OF BIOSCIENCE AND BIOTECHNOLOGY, priority 2015, dated 2019).
